Measurements taken from ChEMBL document CHEMBL4219148, “Discovery of a highly potent orally bioavailable imidazo-[1, 2-a]pyrazine Aurora inhibitor” (Bioorg Med Chem Lett, 2018).
In brackets after ≈: the same amount, converted by molar mass.

Columns and labels:
[1] = Oral bioavailability in monkey at 3 mg/kg; assay type: ADME, organism-based, Macaca mulatta; settings: rhesus monkey, in vivo
A2780 [2] = assay: Antitumor activity against human A2780 cells xenografted in nu/nu mouse assessed as tumor growth inhibition at 300 mg/kg, po bid; assay type: functional; settings: read-out: TGI
[3] = AUC (0 to 6 hrs) in rat at 10 mg/kg, po; assay type: ADME, organism-based; set-up: time < 6 hr, dose 10 mg/kg, route oral; settings: in vivo
[4] = Kinetic solubility of the compound in sodium phosphate buffer/2% DMSO at pH 7.4 by static light scattering method; assay type: physicochemical; settings: read-out: Kinetic_solubility
[5] = AUC (0 to 48 hrs) in rat at 1 mg/kg, iv; assay type: ADME, organism-based; set-up: time < 48 hr, dose 1 mg/kg, route intravenous; settings: in vivo
[6] = AUC (0 to 48 hrs) in rat at 3 mg/kg, po; assay type: ADME, organism-based; set-up: dose 3 mg/kg, time < 48 hr, route oral; settings: in vivo
[7] = Volume of distribution in rat at 1 mg/kg, iv; assay type: ADME, organism-based; settings: in vivo
[8] = Oral bioavailability in rat at 3 mg/kg; assay type: ADME, organism-based; settings: in vivo
[9] = Intrinsic clearance in cryopreserved monkey hepatocytes assessed per million cells; assay type: ADME, cell-based, Macaca mulatta, Hepatocyte; settings: rhesus monkey, read-out: CLH
[10] = Equilibrium solubility of the compound in citrate buffer at pH 5.3 by HPLC method; assay type: physicochemical
[11] = Volume of distribution in rat at 10 mg/kg, iv; assay type: ADME, organism-based; settings: in vivo
[12] = AUC (0 to 24 hrs) in rat at 10 mg/kg, iv; assay type: ADME, organism-based; set-up: time < 24 hr, dose 10 mg/kg, route intravenous; settings: in vivo
[13] = Intrinsic clearance in cryopreserved dog hepatocytes assessed per million cells; assay type: ADME, cell-based, Canis lupus familiaris, Hepatocyte; settings: read-out: CLH
HCT-116 = assay: Induction of endoreduplication in human HCT116 cells assessed as accumulation of >=4 N DNA preincubated for 24 hrs followed by compound washout by FACS analysis; assay type: functional
A2780 [14] = assay: Antitumor activity against human A2780 cells xenografted in nu/nu mouse assessed as tumor growth inhibition at 10 mg/kg, ip bid for 3 days; assay type: functional; settings: 72 h, read-out: TGI
[15] = target: Interleukin-1 receptor-associated kinase 4 (Homo sapiens, UniProt Q9NWZ3); assay: Inhibition of IRAK4 (unknown origin)
[16] = AUC (0 to 48 hrs) in monkey at 10 mg/kg, po; assay type: ADME, organism-based, Macaca mulatta; set-up: time < 48 hr, dose 10 mg/kg, route oral; settings: rhesus monkey, in vivo
Mus musculus [17] = assay: Toxicity in nu/nu mouse xenografted with human A2780 cells assessed as body weight loss at 25 mg/kg, po qd after 3 days; assay type: organism-based; settings: in vivo, 72 h
[18] = Intrinsic clearance in cryopreserved rat hepatocytes assessed per million cells; assay type: ADME, cell-based, Hepatocyte; settings: read-out: CLH
[19] = Oral bioavailability in monkey at 10 mg/kg; assay type: ADME, organism-based, Macaca mulatta; settings: rhesus monkey, in vivo
[20] = Clearance in rat at 10 mg/kg, iv; assay type: ADME, organism-based; settings: in vivo
[21] = Oral bioavailability in rat at 30 mg/kg; assay type: ADME, organism-based; settings: in vivo
[22] = Half life in rat at 10 mg/kg, iv; assay type: ADME, organism-based; settings: in vivo
Mus musculus [23] = assay: Toxicity in nu/nu mouse xenografted with human A2780 cells assessed as body weight loss at 10 mg/kg, po bid after 3 days; assay type: organism-based; settings: in vivo, 72 h
[24] = target: Ribosomal protein S6 kinase; assay: Inhibition of S6K (unknown origin); assay type: protein assay, Homo sapiens
A2780 [25] = assay: Antitumor activity against human A2780 cells xenografted in nu/nu mouse assessed as tumor growth inhibition at 25 mg/kg, po qd for 3 days; assay type: functional; settings: 72 h, read-out: TGI

Interleukin-1 receptor-associated kinase 4, sequence (Q9NWZ3 whole entry): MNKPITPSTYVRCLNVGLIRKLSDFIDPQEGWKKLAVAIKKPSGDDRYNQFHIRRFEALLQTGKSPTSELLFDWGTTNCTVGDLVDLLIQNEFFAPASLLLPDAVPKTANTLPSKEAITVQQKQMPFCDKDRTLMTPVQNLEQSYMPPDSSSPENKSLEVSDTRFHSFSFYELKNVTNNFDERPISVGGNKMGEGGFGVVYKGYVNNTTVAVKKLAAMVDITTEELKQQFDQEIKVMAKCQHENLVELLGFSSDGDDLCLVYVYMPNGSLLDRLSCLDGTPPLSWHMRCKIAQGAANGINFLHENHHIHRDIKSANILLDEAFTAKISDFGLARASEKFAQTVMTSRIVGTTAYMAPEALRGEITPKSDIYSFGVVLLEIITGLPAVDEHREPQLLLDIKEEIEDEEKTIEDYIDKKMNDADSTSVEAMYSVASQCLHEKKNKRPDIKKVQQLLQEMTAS

## Cc1cn2c(-c3cn[nH]c3)cnc2c(Nc2cc(Cc3ccccn3)ns2)n1
[1]
  bioavailability: 0%
A2780 [2]
  inhibition in vivo at 300 mg/kg: 61%
[3]
  AUC(0-t) at 6 h: 17.7 µM·h
[4]
  solubility kinetic: 20 µM (≈ 7.77 µg/mL)
[5]
  AUC(0-t) at 48 h: 2.8 µM·h
[6]
  AUC(0-t) at 48 h: 0.8 µM·h
[7]
  Vd: 0.7 L/kg
[8]
  bioavailability: 10%

## Cc1cn2c(-c3cn[nH]c3)cnc2c(Nc2cc(C(NC(C)(C)C)c3ccccn3)ns2)n1 (single isomer, unassigned; (+))
[9]
  hepatocyte CLint: 27.6 µL/min/1e6 cells
[10]
  solubility thermodynamic: 5300 µg/mL (≈ 11.5 mM)
[11]
  Vd: 2.5 L/kg
[12]
  AUC(0-t) at 24 h: 33 µM·h
[13]
  hepatocyte CLint: 5.1 µL/min/1e6 cells
HCT-116
  Cmin: 6 nM
A2780 [14]
  inhibition in vivo at 10 mg/kg: 94%
[15]
  IC50: 380 nM
[16]
  AUC(0-t) at 48 h: 4 µM·h
Mus musculus [17]
  Activity: 10%
[18]
  hepatocyte CLint: 11.5 µL/min/1e6 cells
[19]
  bioavailability: 8%
[20]
  clearance: 11 mL/min/kg
[21]
  bioavailability: 40%
[22]
  half-life: 2.6 h
Mus musculus [23]
  Activity: 10%
[24]
  IC50: > 1000 nM
A2780 [25]
  inhibition in vivo at 25 mg/kg: 86%
